Tests used:
X16 BTICs [1] = assay: cell proliferation of X16 BTICs; type: cell-based, human; settings: PFI-3 alone
Description: FIG. 1A is a pair of graphs showing the effect of temozolomide (TMZ) on the proliferation of brain-tumor initiating cells (BTICs) obtained from two independent glioblastoma tumors, GBM6 (left) and X16 (right). Relative proliferation is shown for cells treated with 300 micromolar (μM) TMZ or 600 μM TMZ, as well as for untreated cells. *p≤0.05.
BRG1 loss sensitizes BTICs to TMZ in vitro and in vivo: Although the alkylating agent TMZ is front-line chemotherapy in the treatment of GBM, a significant clinical problem is intrinsic or adaptive resistance to TMZ.^63 To evaluate TMZ sensitivity, GBM6 or X16 BTICs were treated with 300 μM or 500 μM TMZ, and cell proliferation was determined. […] Since BRG1 has been implicated in DNA double-strand break repair,^65-67 it was hypothesized that BRG1 loss in BTICs would sensitize BTICs to TMZ. […] To determine whether BRG1-KD sensitized BTICs to TMZ in vivo, animal studies were conducted with control (scrambled shRNA) and BRG1-KD X16 BTICs injected into the flanks of NSG mice. After tumor initiation was confirmed by live animal imaging, mice were treated with TMZ. […] Thus, despite X16 BRG1-KD BTICs producing larger tumors, the tumors were sensitized to TMZ therapy. […]

bromodomain of BRG1 = target: T1, bromodomain of BRG1 (Homo sapiens, UniProt P51532); assay: thermal shift assay of the BRG1 bromodomain in MT330 GBM cells; type: binding; settings: 44.5° C. to 55.6° C.; PFI-3 30 μM, IV-073 20 μM, two hours; compared to DMSO
T1 construct: The assay involved the use of the bromodomain of BRG1 in MT330 GBM cells; expressed in transfected cells; host or cells: MT330 GBM cells
Description: FIG. 3 is a series of immunoblot images showing the effects of Brahma-related gene-1 bromodomain inhibitors (BRIs) on the stability of the bromodomain of Brahma-related gene-1 in a thermal assay shift of the bromodomain in glioblastoma cells over a temperature range from 44.5 degrees Celsius (° C.) to 55.6° C. Cells were treated with (middle) PFI-3 (30 micromolar (μM)) for two hours or (right), a PFI-3 analog of the presently disclosed subject matter (IV-073) (20 μM) for two hours. For comparison, control cells treated with dimethyl sulfoxide (DMSO) are shown at […].
To further study the activity of the presently disclosed PFI-3 analogs, a thermal shift assay was employed. The assay involved the use of the bromodomain of BRG1 in MT330 GBM cells at temperatures ranging from 44.5° C. to 55.6° C.

[2] = target: T2, GFP-tagged bromodomain of BRG1 (GFP-BRG1 BRD) (Homo sapiens, UniProt P51532); assay: nuclear localization of fluorescently tagged BRG1 bromodomain in MT330 GBM cells; type: cell-based; settings: PFI-3 10 or 30 μM; IV-073 5, 10 or 30 μM; compared to DMSO
T2 construct: a fluorescently tagged bromodomain of BRG1 expressed in MT330 GBM cells; expressed in transfected cells; host or cells: MT330 GBM cells
From the text: FIG. 4 is a series of fluorescence microscopy images showing the effects of Brahma-related gene-1 bromodomain inhibitors (BRIs) on the nuclear localization of a green fluorescent protein (GFP)-tagged bromodomain of Brahma-related gene-1 (GFP-BRG1 BRD).
The effects of PFI-3 and its analogs on the nuclear localization of a fluorescently tagged bromodomain of BRG1 expressed in MT330 GBM cells was studied. In the control samples, the fluorescent bromodomain is localized to the nucleus. However, an inhibitor displaces it from the nucleus and the fluorescence signal markedly decreases because it is degraded in the cytoplasm.

X16 BTIC = X16 BTIC mouse flank xenografts; type: in vivo, mice; settings: combined with TMZ, 8 weeks
Description: FIG. 1F is a graph showing the effect of temozolomide (TMZ) on the tumorigenicity of control (black portion of bars) and Brahma-related gene-1-knock-down (BRG1-KD) (grey portion of bars) brain-tumor initiating cells (BTICs) after injection of 10^6 tumor cells into the flanks of immunodeficient mice. Live animal imaging preformed at weekly intervals. After confirming tumor initiation by live animal imaging, mice were treated with TMZ by interperitoneal (IP) injection (10 milligrams per kilogram (mg/kg) on alternate days). The reduction in tumor volume was calculated at 1 week (left) and 2 weeks (right) post-treatment. *p≤0.05.
FIG. 5 is a graph showing the effect of Brahma-related gene-1 bromodomain inhibitors (BRIs), PFI-3 and the PFI-3 analogs (PAs) IV-073, IV-077, and IV-085, on the anticancer activity of temozolomide (TMZ) on brain-tumor initiating-cell (BTIC) tumor growth. BTICs (10^6 cells) from X16 glioblastoma were injected into the flanks of immunodeficient mice. After confirming tumor initiation by live animal imaging, mice were treated with PFI-3 or a PA (0.5 microgram per mouse (μg/mouse)) and TMZ (0.25 mg/mouse) by intrarperitoneal (IP) injection on alternate days. The reduction in tumor volume was calculated at 2 weeks post-treatment.
BRG1 loss sensitizes BTICs to TMZ in vitro and in vivo: Although the alkylating agent TMZ is front-line chemotherapy in the treatment of GBM, a significant clinical problem is intrinsic or adaptive resistance to TMZ.^63 To evaluate TMZ sensitivity, GBM6 or X16 BTICs were treated with 300 μM or 500 μM TMZ, and cell proliferation was determined. […] Since BRG1 has been implicated in DNA double-strand break repair,^65-67 it was hypothesized that BRG1 loss in BTICs would sensitize BTICs to TMZ. […] To determine whether BRG1-KD sensitized BTICs to TMZ in vivo, animal studies were conducted with control (scrambled shRNA) and BRG1-KD X16 BTICs injected into the flanks of NSG mice. After tumor initiation was confirmed by live animal imaging, mice were treated with TMZ. […] Thus, despite X16 BRG1-KD BTICs producing larger tumors, the tumors were sensitized to TMZ therapy.
In contrast, all mice with single drug treatment had to be euthanized because the tumors had reached […] by 3 weeks post-treatment.

X16 BTICs [3] = settings: cited from earlier work
X10 BTICs = settings: cited from earlier work
GFAP = settings: X16 BTICs; cited from earlier work
[4] = system: cancer cell lines (lung, synovial sarcoma, leukemia, and rhabdoid tumor cells); settings: panel of cancer cell lines; cited from earlier work
BTICs = settings: cited from earlier work
embryonic stem cell = settings: cited from earlier work

T2 sequence (P51532 1453-1564 limits assumed): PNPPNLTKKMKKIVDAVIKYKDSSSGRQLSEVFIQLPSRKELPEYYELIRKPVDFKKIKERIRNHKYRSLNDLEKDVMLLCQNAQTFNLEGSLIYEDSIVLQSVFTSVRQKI
T1 sequence (P51532 1453-1564 limits assumed): as above

For O=C(/C=C/N1C[C@H]2C[C@@H]1CN2c1ccccn1)c1ccccc1O [PFI-3, (E)-1-(2-hydroxyphenyl)-3-((1R,4R)-5-(pyridin-2-yl)-2,5-diazabicyclo[2.2.1]heptan-2-yl)prop-2-en-1-one], the “effect on BTIC proliferation” value (X16 BTICs [1]) was “only a slight growth inhibitory effect”, the “stabilization of the BRG1 bromodomain” value (bromodomain of BRG1) was “stabilizes the BRG1 bromodomain” and the “displacement of the BRG1 bromodomain from the nucleus” value [2] was “displaces the BRG1 bromodomain from the nucleus”. The “tumors after treatment for 8 weeks” value (X16 BTIC) was “less dramatic effect”, the “sensitization to Carmustine” value (X16 BTICs [3]; X16 BTICs, PFI-3 treatment) was “sensitized” and the “effect on X16 BTIC proliferation” value (X16 BTICs [3]; combination of TMZ and PFI-3, versus either agent alone) was “markedly greater effect on X16 BTIC proliferation than either agent alone”. For the same molecule, the “sensitization to Carmustine” value (X10 BTICs; X10 BTICs, PFI-3 treatment) was “sensitized”, the “effect on X10 BTIC proliferation” value (X10 BTICs; combination of PFI-3 and TMZ) was “marked effect on X10 BTIC proliferation” and the GFAP protein expression (GFAP) was “upregulated GFAP protein expression”. For the same molecule, the proliferation or tumorgenicity [4] was “not to inhibit the proliferation or tumorgenicity”, the “effect on BTIC proliferation” value (BTICs; PFI-3 alone) was “little effect on BTIC proliferation” and the “stemness of BTICs” value (BTICs) was “inhibits the stemness of BTICs”. The “sensitization of BTICs to DNA alkylating agents” value (BTICs; in vitro) was “sensitizes BTICs to DNA alkylating agents” and the “embryonic stem cell phenotype” value (embryonic stem cell) was “inhibits the embryonic stem cell phenotype”.

Reference: patent publication US12329755B2, “Bromodomain inhibitors to target therapy-resistant cancer” (University of Tennessee Research Foundation, priority 2019, dated 2025)
